Data on one molecule can be found in patent publication US9856511B2, “Protease deubiquitinating inhibitor screening” (priority 2011, dated 2018).

For assay [1], the system named is HCT-116 Bcl-2+ colon carcinoma. In words: Disease free survival of nude mice challenged with HCT-116 Bcl-2+ cells. Type of assay: in vivo. To be noted: 5 mg/kg 4-5 times weekly for 3 weeks; log-rank P=0.0136. As for the experimental part: Animal experiments were conducted in full accordance with Swedish governmental statutory regulations on animal welfare under permission from local ethical committees. Animals were housed at a max of five per cage and provided with sterile water and food ad libitum. All mice were monitored and weighed daily. For the head and neck carcinoma model a 100-μl cell suspension containing 1×10^6 FaDu cells was injected subcutaneously into the right rear flank of the animals. After injection, tumor growth was measured daily with calipers and the tumor volume calculated by the formula […]. When tumors had grown to a size of approximately 200 mm^3 (Day 0) mice were randomized to receive either vehicle (n=10) or b-AP15 5 mg/kg^−1 by subcutaneous injection s.c. (n=15) daily. […] Nineteen days after malignant cell injection all of the mice were killed and histopathological manifestations of liver, ovary (target organs for this model of tumor) were evaluated and compared between groups. […]
SCID mice bearing FaDu human tumor xenografts were randomized at tumor take (200 mm^3) and treated by daily subcutaneous injection with either vehicle (n=10) or 5 mg kg^−1 b-AP15 (n=15) for 10 days. […] Mice were treated with vehicle (n=6) or 5 mg kg^−1 b-AP15 (n=6) 4-5 times weekly for 3 weeks and monitored for tumor onset (log-rank, P=0.0136, hazard ratio=7.9). […]

Another assay addresses T1, 19S RP (Homo sapiens, UniProt P54578+Q9Y5K5).
T1 construct: purchased Boston Biochem E-366
In words: Ubiquitin chain disassembly of K48/K63 linked ubiquitin tetramers by 19S RP. It is filed as biochemical. As for the experimental part: To this end the ability of b-AP15 to inhibit cleavage of recombinant ubiquitin-GFP was assessed. Recombinant ubiquitin-GFP is a substrate for 19S RP DUB activity (22). […] The type of ubiquitin bonds present in the polyubiquitin chain determines the fate of an ubiquitin-modified substrate. K48 linked polyubiquitin chains generally targets conjoined proteins for degradation (23), whereas K63 linked chains are involved in non-proteolytic roles including DNA repair (24) and mitotic chromosome segregation (25). […] The inhibition of ubiquitin chain disassembly observed could account for the accumulation of high molecular weight ubiquitin conjugates in b-AP15 treated cells.
The recombinant Ub-GFP plasmid pet19b Ub-M-GFP was generated as described (42). In brief recombinant Ub-GFP was purified from BL21 E. coli cells by His affinity purification. For cleavage assays 19S RP (25 nM) was incubated with 10 mM NEM, 250 μM TPEN or 50 μM b-AP15 for 10 min followed by the addition of recombinant Ub-GFP (200 nM). […] The level of Ub-GFP cleavage or ubiquitin disassembly was determined by immunoblotting with anti ubiquitin antibodies. […] The cleavage of ubiquitinated Hdm2 substrate and ubiquitinated Hdm2 was determined by immunoblotting with anti-Hdm2 antibodies. […]

The target in another assay is T2, 26S proteasome (Homo sapiens, UniProt P54578+Q9Y5K5).
T2 construct: purchased Boston Biochem E-365
In words: DUB inhibition assay, 26S proteasomes with ubiquitin-AMC. To be noted: Ub-AMC. Type of assay: biochemical.

As to `C=CC(=O)N1C/C(=C\c2ccc([N+](=O)[O-])cc2)C(=O)/C(=C/c2ccc([N+](=O)[O-])cc2)C1` [b-AP15], in assay [1], the “disease free survival (tumor onset), hazard ratio” value turned out to be 7.9. Moreover, the “19S RP processing of K48 and K63 linked ubiquitin tetramers” value on 19S RP was “inhibited 19S RP processing of both K48 and K63 linked ubiquitin tetramers”. In addition, the “inhibition of deubiquitinating activity of 26S proteasome” value on 26S proteasome is “inhibits the deubiquitinating activity”.
